Tested on: human monocytic cell line U937
Assay: Human U937 cellular necroptosis assay
Assay type: cell-based
Details: U-937; U937 cells stimulated with 25 ng/mL human TNFalpha and 25 μM z-VAD-FMK; 22 hr; viability by Cell Titer-Glo 2.0; read-out: hU937 IC50
Experimental: Human U937 Cellular Necroptosis Assay
The human monocytic cell line U937 (CRL-1593.2) may be purchased from ATCC. The cells are routinely maintained in RPMI-1640 Medium (Gibco, Catalog #11875-093) supplemented with 10% heat inactivated fetal bovine serum (Gibco, Catalog #16140-071), 100 units/mL penicillin and 100 μg/mL streptomycin (Gibco, Catalog #15140-122), in a humidified incubator (37° C., 5% CO2). For the assay, cells are resuspended in RPMI-1640 phenol red free Media (Gibco, Catalog #11835-030) supplemented with 10% fetal bovine serum (Sigma, Catalog #F2442), 100 units/mL penicillin and 100 ug/mL streptomycin. Cells are stimulated with 25 ng/mL human TNFalpha (Cell Sciences, Catalog #CSI15659B) and 25 μM z-VAD-FMK (R&D Systems, Catalog #FMK001) followed by seeding 5000 cells per well in a volume of 40 μL to a white, CulturPlate-384 (Perkin Elmer, Catalog #6007680). Stock solutions of the test compounds are prepared in 100% DMSO (Sigma, Catalog #D2650) and serially diluted 1:3 using 100% DMSO. Compounds are additionally diluted 1:40 in assay medium, and 10 μL/well was transferred to the plate. Following the compound addition, the plate is incubated at 37° C. and 5% CO2 for 22 hr. After 22 hr, viability is assessed with the addition of 20 μL of Cell Titer-Glo 2.0 (Promega, Catalog #G9243). The tissue culture plate is shaken on an orbital shaker at 300 RPM for 15 minutes at room temperature in the dark. Luminescence is measured using a PerkinElmer Envision™ plate reader. IC50 values are calculated using a four-parameter logistic curve fit using Genedata Screener software. Compounds disclosed herein are expected to have activity in this assay.

Compound: Cc1cnc(C(=O)N[C@H]2COc3cc(Cl)cnc3N(C)C2=O)nc1-c1ccccc1F [Example 116, (S)-N-(8-chloro-5-methyl-4-oxo-2,3,4,5-tetrahydro-pyrido[3,2-b][1,4]oxazepin-3-yl)-4-(2-fluorophenyl)-5-methylpyrimidine-2-carboxamide]
- IC50: 8.42 nM

Compound: Cc1cnc(C(=O)N[C@H]2COc3ccc(CN4CCn5ncnc5C4)cc3N(C)C2=O)nc1-c1ccccc1F [Example 156, (S)-N-(7-((5,6-dihydro-[1,2,4]triazolo[1,5-a]pyrazin-7(8H)-yl)methyl)-5-methyl-4-oxo-2,3,4,5-tetrahydrobenzo[b]-[1,4]oxazepin-3-yl)-4-(2-fluorophenyl)-5-methylpyrimidine-2-carboxamide]
- IC50: 17.1 nM

Compound: CN1C(=O)[C@@H](NC(=O)c2ncc(Cl)c(-c3cccc(C#N)c3)n2)COc2cc(Cl)cnc21 [Example 104, (S)-5-chloro-N-(8-chloro-5-methyl-4-oxo-2,3,4,5-tetrahydropyrido[3,2-b]-[1,4]oxazepin-3-yl)-4-(3-cyanophenyl)pyrimidine-2-carboxamide]
- IC50: 32.1 nM

Compound: Cc1ccc(-c2nc(C(=O)N[C@H]3COc4cc(F)cnc4N(C)C3=O)ncc2Cl)c(F)c1 [Example 77, (S)-5-chloro-4-(2-fluoro-4-methylphenyl)-N-(8-fluoro-5-methyl-4-oxo-2,3,4,5-tetrahydropyrido[3,2-b]-[1,4]oxazepin-3-yl)pyrimidine-2-carboxamide]
- IC50: 9.14 nM

Compound: Cc1cccc(-c2nc(C(=O)N[C@H]3COc4cc(Cl)cnc4N(C)C3=O)ncc2Cl)c1 [Example 106, (S)-5-chloro-N-(8-chloro-5-methyl-4-oxo-2,3,4,5-tetrahydropyrido[3,2-b]-[1,4]oxazepin-3-yl)-4-(m-tolyl)-pyrimidine-2-carboxamide]
- IC50: 14.8 nM

Compound: CN1C(=O)[C@@H](NC(=O)c2ncc(Cl)c(-c3cc(F)cc(F)c3)n2)COc2cc(F)cnc21 [Example 76, (S)-5-chloro-4-(3,5-difluorophenyl)-N-(8-fluoro-5-methyl-4-oxo-2,3,4,5-tetrahydropyrido [3,2-b]-[1,4]oxazepin-3-yl)pyrimidine-2-carboxamide]
- IC50: 16.5 nM

Compound: Cc1cnc(C(=O)N[C@H]2COc3cc(C#N)ccc3N(C)C2=O)nc1N1CCC(F)(F)CC1 [Example 19, (S)-N-(8-cyano-5-methyl-4-oxo-2,3,4,5-tetrahydro-benzo[b][1,4]oxazepin-3-yl)-4-(4,4-difluoropiperidin-1-yl)-5-methylpyrimidine-2-carboxamide]
- IC50: 748 nM

Compound: CN1C(=O)[C@@H](NC(=O)c2ncc(Cl)c(-c3ccccc3)n2)COc2cc(F)cnc21 [Example 69, (S)-5-chloro-N-(8-fluoro-5-methyl-4-oxo-2,3,4,5-tetrahydropyrido[3,2-b]-[1,4]oxazepin-3-yl)-4-phenylpyrimidine-2-carboxamide]
- IC50: 7.41 nM

Compound: CN1C(=O)[C@@H](NC(=O)c2ncc(Cl)c(-c3ccc(F)cc3F)n2)COc2ccc(NCC(F)(F)CCl)cc21 [Example 140, (S)-5-chloro-N-(7-((3-chloro-2,2-difluoropropyl)amino)-5-methyl-4-oxo-2,3,4,5-tetrahydrobenzo[b]-[1,4]oxazepin-3-yl)-4-(2,4-difluorophenyl)pyrimidine-2-carboxamide]
- IC50: 35.4 nM

Compound: CN1C(=O)[C@@H](NC(=O)c2ncc(Cl)c(-c3ccc(F)cc3F)n2)COc2ccc(NCC3(CCl)CCOCC3)cc21 [Example 141, (S)-5-chloro-N-(7-(((4-(chloromethyl)tetrahydro-2H-pyran-4-yl)methyl)amino)-5-methyl-4-oxo-2,3,4,5-tetrahydrobenzo[b]-[1,4]oxazepin-3-yl)-4-(2,4-difluorophenyl)pyrimidine-2-carboxamide]
- IC50: 14.5 nM

Compound: CN1C(=O)[C@@H](NC(=O)c2ncc(Cl)c(-c3cncc(F)c3)n2)COc2cc(Cl)cnc21 [Example 109, (S)-5-chloro-N-(8-chloro-5-methyl-4-oxo-2,3,4,5-tetrahydropyrido[3,2-b]-[1,4]oxazepin-3-yl)-4-(5-fluoropyridin-3-yl)pyrimidine-2-carboxamide]
- IC50: 59.2 nM

Compound: CN1C(=O)[C@@H](NC(=O)c2ncc(Cl)c(-c3ccccc3F)n2)COc2cc(Cl)cnc21 [Example 94, (S)-5-chloro-N-(8-chloro-5-methyl-4-oxo-2,3,4,5-tetrahydropyrido[3,2-b]-[1,4]oxazepin-3-yl)-4-(2-fluorophenyl)pyrimidine-2-carboxamide]
- IC50: 13.5 nM

Compound: CN1C(=O)[C@@H](NC(=O)c2ncc(Cl)c(-c3ccc(F)cc3F)n2)COc2ccccc21 [Example 46, (S)-5-chloro-4-(2,4-difluorophenyl)-N-(5-methyl-4-oxo-2,3,4,5-tetrahydrobenzo[b]-[1,4]oxazepin-3-yl)pyrimidine-2-carboxamide]
- IC50: 11.8 nM

Compound: CN1C(=O)[C@@H](NC(=O)c2ncc(Cl)c(-c3cc(F)cc(F)c3)n2)COc2cc(Cl)cnc21 [Example 99, (S)-5-chloro-N-(8-chloro-5-methyl-4-oxo-2,3,4,5-tetrahydropyrido [3,2-b]-[1,4]oxazepin-3-yl)-4-(3,5-difluorophenyl)pyrimidine-2-carboxamide]
- IC50: 13.9 nM

Compound: CN1C(=O)[C@@H](NC(=O)c2ncc(Cl)c(-c3cc(F)ccc3F)n2)COc2cc(Cl)cnc21 [Example 98, (S)-5-chloro-N-(8-chloro-5-methyl-4-oxo-2,3,4,5-tetrahydropyrido[3,2-b]-[1,4]oxazepin-3-yl)-4-(2,5-difluorophenyl)pyrimidine-2-carboxamide]
- IC50: 7.25 nM

Compound: CN1C(=O)[C@@H](NC(=O)c2ncc(Cl)c(-c3ccc(C#N)cc3)n2)COc2cc(Cl)cnc21 [Example 105, (S)-5-chloro-N-(8-chloro-5-methyl-4-oxo-2,3,4,5-tetrahydropyrido[3,2-b]-[1,4]oxazepin-3-yl)-4-(4-cyanophenyl)pyrimidine-2-carboxamide]
- IC50: 19.6 nM

Compound: Cc1ccc(C(=O)Nc2cccc(Cl)c2F)nc1-c1cc(F)ccc1F [Example 35, N-(3-chloro-2-fluorophenyl)-6-(2,5-difluorophenyl)-5-methylpicolinamide]
- IC50: ≥ 10000 nM

Compound: CN1C(=O)[C@@H](NC(=O)c2ncc(S(C)(=N)=O)c(-c3ccccc3)n2)COc2cc(Cl)cnc21 (stereo partly drawn) [Example 127, N-((S)-8-chloro-5-methyl-4-oxo-2,3,4,5-tetrahydro-pyrido[3,2-b][1,4]oxazepin-3-yl)-5-(S-methylsulfonimidoyl)-4-phenylpyrimidine-2-carboxamide]
- IC50: 3950 nM

Compound: Cc1cnc(C(=O)N[C@H]2COc3cccnc3N(C)C2=O)nc1-c1ccc(F)cc1F [Example 60, (S)-4-(2,4-difluorophenyl)-5-methyl-N-(5-methyl-4-oxo-2,3,4,5-tetrahydropyrido[3,2-b]-[1,4]oxazepin-3-yl)pyrimidine-2-carboxamide]
- IC50: 16.2 nM

Compound: Cc1cnc(C(=O)N[C@H]2COc3cc(Cl)cnc3N(C)C2=O)nc1-c1cncnc1 [Example 122, (S)-N-(8-chloro-5-methyl-4-oxo-2,3,4,5-tetrahydro-pyrido[3,2-b][1,4]oxazepin-3-yl)-5-methyl-[4,5′-bipyrimidine]-2-carboxamide]
- IC50: 144 nM

Compound: Cc1cnc(C(=O)N[C@H]2COc3ccc(Oc4cnn(C)c4)cc3N(C)C2=O)nc1-c1ccccc1F [Example 159, (S)-4-(2-fluorophenyl)-5-methyl-N-(5-methyl-7-((1-methyl-1H-pyrazol-4-yl)oxy)-4-oxo-2,3,4,5-tetrahydrobenzo[b]-[1,4]oxazepin-3-yl)pyrimidine-2-carboxamide]
- IC50: 9 nM

Compound: CN1C(=O)[C@@H](NC(=O)c2ncc(Cl)c(-c3cc(F)c(CO)c(F)c3)n2)COc2cc(F)cnc21 [Example 166, (S)-5-chloro-4-(3,5-difluoro-4-(hydroxymethyl)phenyl)-N-(8-fluoro-5-methyl-4-oxo-2,3,4,5-tetrahydropyrido[3,2-b][1,4]oxazepin-3-yl)pyrimidine-2-carboxamide]
- IC50: 196 nM

Compound: Cc1cnc(C(=O)N[C@H]2COc3cc(Cl)cnc3N(C)C2=O)nc1C1CC(F)(F)CCN1 (stereo partly drawn) [Example 172, N—((S)-8-chloro-5-methyl-4-oxo-2,3,4,5-tetrahydropyrido[3,2-b][1,4]oxazepin-3-yl)-4-(4,4-difluoropiperidin-2-yl)-5-methylpyrimidine-2-carboxamide]
- IC50: 175 nM

Compound: Cc1cc(F)cc(F)c1-c1ccnc(C(=O)N[C@H]2COc3cc(Cl)cnc3N(C)C2=O)n1 [Example 90, (S)-N-(8-chloro-5-methyl-4-oxo-2,3,4,5-tetrahydro-pyrido[3,2-b][1,4]oxazepin-3-yl)-4-(2,4-difluoro-6-methylphenyl)pyrimidine-2-carboxamide]
- IC50: 83.5 nM

Compound: Cc1cc(-c2nc(C(=O)N[C@H]3COc4cc(Cl)cnc4N(C)C3=O)ncc2Cl)ccc1F [Example 100, (S)-5-chloro-N-(8-chloro-5-methyl-4-oxo-2,3,4,5-tetrahydropyrido[3,2-b]-[1,4]oxazepin-3-yl)-4-(4-fluoro-3-methylphenyl)pyrimidine-2-carboxamide]
- IC50: 12.2 nM
